Source: patent US11957127B1, “1,3-bis(naphthalen-2-yloxy)propan-2-one as an eco-friendly insecticidal agent against Spodoptera littoralis (boisd.)” (priority 2023, dated 2024)
Converted amounts (≈) assume the structure as drawn. Read-outs that look alike come from different tables or passages of the source.

Tested on: Spodoptera littoralis
Assay: Insecticidal bioassay screening (castor leaf dip, larval mortality)
Assay type: in vivo
Settings: for Toxic ratio: 72 h, fenoxycarb's LC50 / compound's LC50 × 100
Description: Five concentrations (200, 100, 50, 25, 12.5 ppm) were designed for this synthetic compound and the reference fenoxycarb compound as the dynamic ingredients based on ppm via diluting the commercial formulation.
In this experiment, castor leaves are immersed in each of the previously prepared concentrations of the components for 10 seconds and then left to dry for 60 minutes. Larvae of the second and fourth instars of each checked strain are prepared with treated leaves in gauze-covered glass containers for 72 hrs. An untreated control is made in which leaves are dipped in triton x-100 and distilled water only. Then the preserved leaves were removed & fresh, untreated leaves were provided for 72 hours. Three replicates (10 larvae each) were checked for each concentration. Daily inspection was carried out for all treatments and mortality percentages were recorded 3 days (72 hours) after treatment. The average mortality percentage was corrected employing Abbott's formula. The corrected mortality rate for each of the previously synthesized compounds is statistically calculated according to Finney (1970). Through this rate, the corresponding concentration test lines (LDP lines) are assessed. Fifty and ninety percent mortality are determined, and the regression values for the checked products were previously evaluated.

[1] = 2nd instar larvae of S. littoralis, after 72 h of treatment
[2] = 4th instar larvae of S. littoralis, after 72 h of treatment

SMILES	LC50 [1]	Toxic ratio (2nd instar larvae)	LC50 [2]	Toxic ratio (4th instar larvae)	LC50 (Spodoptera littoralis, foliar)	LC50 (2nd instar larvae of S. littoralis, after 72 h of treatment, listed as 1,3-bis(naphthalen-2-yloxy)propan-2-one)	LC50 (4th instar larvae of S. littoralis, after 72 h of treatment, listed as 1,3-bis(naphthalen-2-yloxy)propan-2-one)	activity against Spodoptera littoralis (in words) (compared with reference insecticide fenoxycarb)	LC50 (foliar, against Spodoptera littoralis under laboratory conditions (instar not given), read-out: LC50)
CCOC(=O)NCCOc1ccc(Oc2ccccc2)cc1 [Fenoxycarb, reference compound]	2.73 ppm	100	43.231 ppm	1	2.73 µg/mL (≈ 9.06 µM)	–	–	–	–
O=C(COc1ccc2ccccc2c1)COc1ccc2ccccc2c1 [Compound 4, 1,3-bis(naphthalen-2-yloxy)propan-2-one]	38.69 ppm	7.0	86.921 ppm	49.7	–	about 38.69 ppm	about 86.921 ppm	active	38.7 µg/mL (≈ 113 µM)
